Several values for one entry are separate records, joined by “and”; a condition that tells them apart may be missing. Identical values can stand only once. Entries after “also recorded” stand apart in the source; their conditions may differ. Like-named read-outs stand apart in the source and are kept apart here.
Columns and labels:
[1] = in vivo; for AUC%Extrap: mouse
Procedure: (§1) We tested both CA and diAcCA compounds by oral gavage/PO at 10 mg/kg. Analysis was performed by LC-MS in the Scripps Florida Drug Development Core (Jupiter, FL, USA). The compounds were formulated in olive oil. CA went into the oil with minimal stirring, but diAcCA required longer stirring. Blood was collected in hematocrit tubes and centrifuged. […] Drug is therefore likely absorbed via enterocyte passage and through chylomicron absorbance, complicating the early time points of the PK curves.
(§2) Therefore, we decided to pre-weigh the CA into a vial and, in the vivarium, rapidly dissolve the compound in DMSO and then add Tween80/saline. The compound was dosed within five minutes of being dissolved, and the final concentrations were 5% DMSO and 95% of a 5% Tween80 solution in saline. […] Oral clearance calculations assume 100% bioavailability.
(§3) We also determined the stability and bioavailability of diAcCA compared to CA. For this purpose, individual mice were administered CA or diAcCA IV or via oral gavage/PO. For CA, the doses were 3 mg/kg for the IV route and 10 mg/kg for oral gavage/PO, and for diAcCA 10 mg/kg by oral gavage/PO.

[2] = cited from earlier work
in vivo = conditions: for AUC(0-inf): AUCINF_obs; for AUC(0-t): AUClast
Procedure: as §1, §2, §3

[3] = cited from earlier work; remark: listed apart in the source
[4] = tested on: hiPSC-derived microglia (hiMG); test: hiMG transplanted into humanized mouse brain, inflammatory markers; type: in vivo, human
Procedure: The next day, immunostaining was performed on brain sections after 3 washes in PBS and incubation in the appropriate secondary antibody solution on a shaker for 2 h at room temperature. Secondary antibodies included Alexa 488 (A11008, 1:500, goat anti-rabbit, Life Technologies, Carlsbad, CA, USA) and Alexa 555 (A21424, 1:500, goat anti-mouse, Life Technologies). The sections were again washed with PBS 3 times, mounted on Superfrost plus slides (12-550-15, Fisher Scientific, Waltham, MA, USA) and dried at room temperature. […] For each brain, 3–6 images were acquired for each individual marker using a confocal fluorescence microscope (Nikon Eclipse Ti2) (Figure 1, Figure 2 and Figure 3, Supplementary Figure S1). Post image processing, quantification was performed using Fiji ImageJ (1.54f). For the Iba1-stained slides, a mask was made of cells co-labeled for HuNu and Iba1, and then caspase 1 staining was measured. […] For quantification, NeuN, Synapsin I, and GFAP staining were compared between groups by mean fluorescence intensity (MFI), Iba1 and caspase-1 staining was compared by integrated density (ID), Aβ and pTau staining were compared by % area of plaques/aggregates, as previously described. […]

[5] = Shelf life / stability of the compound over time; type: physicochemical; conditions: storage (CA: even if kept in the dark and cold)
[6] = male, C57Bl/6, mouse, po, 10 mg/kg
[7] = mouse, po, 10 mg/kg, Plasma concentration of carnosic acid

In the case of CC(C)c1cc2c(c(O)c1O)[C@@]1(C(=O)O)CCCC(C)(C)[C@@H]1CC2 [CA, carnosic acid], the “Calculated Concentration of carnosic acid in plasma” value ([1]; C57Bl/6, mouse, po, 6 h) is reported as 618 ng/mL, the “CL*F” value [1, 6] is reported as 2.7 and the AUC%Extrap ([1]; iv, 3 mg/kg) is reported as 1.77%. For the same molecule, the AUC%Extrap ([1]; po, 10 mg/kg) was 4.13%, the LD50 [2] was 7100 mg/kg and the AUC(0-inf) (in vivo; male, C57Bl/6, mouse, iv, 3 mg/kg) was 15000 ng·h/mL. It also gave a clearance (in vivo; male, C57Bl/6, mouse, iv, 3 mg/kg, Cl_obs) of 3.3 mL/min/kg, an MRT inf (in vivo; male, C57Bl/6, mouse, iv, 3 mg/kg, MRTINF_obs) of 5.46 h and a half-life (in vivo; male, C57Bl/6, mouse, iv, 3 mg/kg, T1/2) of 13 h. It also gave an AUC(0-inf) (in vivo; [6]) of 10700 ng·h/mL, a bioavailability (in vivo; male, C57Bl/6, mouse, po, 10 mg/kg, F%) of 16% and a half-life (in vivo; male, C57Bl/6, mouse, po, 10 mg/kg, T1/2) of 19.9 h. It also gave an AUC(0-inf) (in vivo; mouse, iv, 3 mg/kg) of 20100 ng·h/mL, an AUC(0-t) (in vivo; mouse, iv, 3 mg/kg) of 59.5 µM·h and a half-life (in vivo; mouse, iv, 3 mg/kg, t1/2) of 11.9 h. It also gave a Tmax (in vivo; mouse, iv, 3 mg/kg) of 0.14 h, a Cmax (in vivo; mouse, iv, 5 mg/kg, mean Cmax of CA in plasma) of 98.5 µM and a half-life (in vivo; mouse, iv, average half-life) of 11.9 h. It also gave a half-life (in vivo; mouse, iv, half-life) of ~12 h, an AUC(0-inf) (in vivo; mouse, po, 10 mg/kg) of 9710 ng·h/mL and an AUC(0-t) (in vivo; mouse, po, 10 mg/kg) of 28 µM·h. The Cmax (in vivo; mouse, po, 10 mg/kg, Cmax of CA in plasma) was 4.45 µM, the concentration at 480 min (in vivo; [7]) was 1 µM and 332 ng/mL and the concentration at 4320 min (in vivo; [7]) was 64.4 nM and 21.4 ng/mL. It also gave a half-life (in vivo; mouse, po, 10 mg/kg, average half-life) of 16.3 h, a Cmax (in vivo; mouse, po, 10 mg/kg, mean Cmax of CA) of 4.45 µM and a half-life (in vivo; mouse, po, 10 mg/kg, t1/2) of 16.3 h. For the same molecule, the Tmax (in vivo; mouse, po, 10 mg/kg) was 1.5 h, the “brain levels as share of the plasma level at peak values” ([3]; PO and IV routes) was “approximately 10%” and the “CA concentration in the brain, which is neuroprotective” value [3] was 1 to 2 µM. The “CA plasma concentration that produces the neuroprotective brain level” value [3] was 10 to 20 µM, the “inflammatory response (Iba1 and caspase-1 expression) of transplanted hiMG” value ([4]; hiMG activated by α-synuclein/Aβ aggregates with or without cognate antibodies, pretreated with CA (2 µM), 2 weeks after transplantation) was “significantly prevented this inflammatory reaction; also recorded: prevented this effect” and the “cleaved/activated caspase-1 integrated density (ID)” value ([4]; response to α-synuclein/Aβ aggregates in the presence of CA (2 µM), p = 0.0307) was “significant decrease”. The “shelf life / stability over time” value [5] was “shelf life of only a couple of months”.
